# Entries after “also recorded” stand apart in the source; their conditions may differ.
# What was measured:
# [1] = Example 3: serum tobramycin pharmacokinetics; format: in vivo; conditions: both sexes, human, inhaled, both formulations (300 mg TOBI, 420 mg TSI), read-out: Individual estimates of serum half-life, range
# Method: A comparison was made of the safety, pharmacokinetics, aerosol delivery characteristics, and nebulization time of the conventional dose and inhalation delivery system (5 mL ampoule containing 300 mg tobramycin and 11.25 mg sodium chloride in sterile water for injection (TOBI® tobramycin solution for inhalation, Chiron Corporation, Seattle, Wash.), pH 6.0; administered with a PART LC PLUS™ jet nebulizer with a DeVilbiss PulmoAide™ compressor set to deliver an output pressure of 20 psi—the “control delivery system”) with a dose of 420 mg Tobramycin Solution for Inhalation at 120 mg/mL (excipient 3.5 mL of ¼ normal saline adjusted to a pH of 6.0±0.5; 420 mg in 3.5 mL) delivered by the PAM LC PLUS™ jet nebulizer with a Invacare MOBILAIRE™ compressor set to deliver an output pressure of 35 psi (the “experimental delivery system”).
# The study was designed as an open label, randomized, single-dose, multicenter, two treatment, active-control, and parallel trial. […]
# Serum Tobramycin Concentrations: Blood samples were collected at predose and at 0.167, 1, 2, 4, 6, and 8 h after the end of the nebulization period. […] Concentrations of tobramycin in serum were analyzed with a modified fluorescence polarization immunoassay (FPIA) method using the Abbott TDx®/TDxFLx® System. […] The lower limit of quantitation was 0.050 μg/mL. […]
# [2] = system: P. aeruginosa isolates; conditions: initial sputum cultures, Children's Hospital CF Center, Seattle, 1993; cited from earlier work
# [3] = system: P. aeruginosa; conditions: cited from earlier work
# [4] = Example 3: sputum tobramycin pharmacokinetics; format: in vivo; conditions: both sexes, human, inhaled, both formulations (300 mg TOBI, 420 mg TSI), read-out: Individual estimates of sputum half-life, range
# Method: A comparison was made of the safety, pharmacokinetics, aerosol delivery characteristics, and nebulization time of the conventional dose and inhalation delivery system (5 mL ampoule containing 300 mg tobramycin and 11.25 mg sodium chloride in sterile water for injection (TOBI® tobramycin solution for inhalation, Chiron Corporation, Seattle, Wash.), pH 6.0; administered with a PART LC PLUS™ jet nebulizer with a DeVilbiss PulmoAide™ compressor set to deliver an output pressure of 20 psi—the “control delivery system”) with a dose of 420 mg Tobramycin Solution for Inhalation at 120 mg/mL (excipient 3.5 mL of ¼ normal saline adjusted to a pH of 6.0±0.5; 420 mg in 3.5 mL) delivered by the PAM LC PLUS™ jet nebulizer with a Invacare MOBILAIRE™ compressor set to deliver an output pressure of 35 psi (the “experimental delivery system”). […]
# Sputum Tobramycin Concentrations: Sputum samples were expectorated by patients from a deep cough and collected before day 1 dosing (predose) and at 0.25, 1, 2, 4, and 8 h after the end of the nebulization period. […] The concentration of tobramycin was analyzed using reversed-phase high-performance liquid chromatography (HPLC) with ultraviolet detection. […] After addition of 600 μL of 60/40 acetonitrile/water (v/v), 50 μL was analyzed by HPLC. […]
# [5] = Example 1: urine tobramycin recovery; format: in vivo, human; conditions: 7 days after prestudy or previous TOBI dose, LOQ 1.0 μg/mL
# Method: Urine specimens were collected and combined in a 24-hour collection container during the 12 hours before treatment (−12-0 hour period) and during 0-8 hour and 8-24 hour collection periods after treatment according to instructions provided in the Study Manual. Total urine volume for the collection period was recorded, and a 10 mL aliquot from each urine collection was retained and frozen for later analysis of urine tobramycin concentration.
# The recovery of tobramycin in urine (in […]) during 0-8 hour and 8-24 hour collection periods was calculated as follows. urine tobramycin recovery (μg)=urine volume (mL)·urine tobramycin concentration (μg/mL)
# Urine tobramycin recovery was normalized for each collection period according to TOBI dose as follows. dose-normalized urine tobramycin recovery (μg/mg)=[urine tobramycin recovery (μg)÷TOBI dose (mg)]
# The percent of the TOBI dose excreted in urine in the 24-hour period following treatment was calculated as follows. % tobramycin excreted in urine =[(urinary recovery in μg÷1000 μg/mg)÷TOBI dose in mg]·100%.
# Tobramycin concentrations in urine were measured by Abbott TDxFLx® assay [urine lower limit of quantitation (LOQ)=1.0 μg/mL].
# [6] = system: Gram-negative bacteria; conditions: Neu 1976; cited from earlier work
smiles,measurement,setting,value
NC[C@H]1O[C@H](O[C@H]2[C@H](O)[C@@H](O[C@H]3O[C@H](CO)[C@@H](O)[C@H](N)[C@H]3O)[C@H](N)C[C@@H]2N)[C@H](N)C[C@@H]1O [tobramycin],half-life,[1],1.1 to 6.8 h
same,MICs of 90% of isolates,[2],≤ 16 µg/mL
same,MICs of 98% of all isolates,[2],≤ 128 µg/mL
same,"Average decrease in P. aeruginosa density, Week 0 to Week 20","[3]; 300 mg inhaled tobramycin twice daily, 28 days on/28 days off, Ramsey 1999",0.8 log10
same,"Average decrease in P. aeruginosa density, Week 0 to Week 4","[3]; 300 mg inhaled tobramycin twice daily, Ramsey 1999",1.9 log10
same,Sputum density of P. aeruginosa,"[3]; 600 mg tid aerosolized tobramycin, 71 CF patients, crossover trial, Ramsey 1993",significant reduction
same,half-life,[4],0.48 to 9.47 h
same,"Measurable predose urine tobramycin concentration during period listed, individual patients",[5]; after prestudy tobramycin,Per 1 - 1.82 μg/mL; also recorded: Per 1 - 3.14 μg/mL; also recorded: Per 1 - 1.74 μg/mL; also recorded: Per 1 - 2.72 μg/mL; also recorded: Per 1 - 3.80 μg/mL
same,"Measurable predose urine tobramycin concentration during period listed, individual patients",[5]; after previous TOBI 30 mg,Per 3 - 1.20 μg/mL
same,"Measurable predose urine tobramycin concentration during period listed, individual patients",[5]; after previous TOBI 60 mg,Per 3 - 1.30 μg/mL; also recorded: Per 3 - 13.22 μg/mL
same,"Measurable predose urine tobramycin concentration during period listed, individual patients",[5]; after previous TOBI 90 mg,Per 2 - 3.10 μg/mL
same,"Measurable predose urine tobramycin concentration during period listed, individual patients",[5]; after previous TOBI 300 mg,Per 2 - 2.06 μg/mL; also recorded: Per 2 - 2.58 μg/mL; also recorded: Per 2 - 1.48 μg/mL; also recorded: Per 2 - 1.58 μg/mL; also recorded: Per 2 - 2.28 μg/mL; also recorded: Per 3 - 2.70 μg/mL; also recorded: Per 3 - 1.16 μg/mL; also recorded: Per 3^c - 1.12 μg/mL; also recorded: Per 3 - 2.08 μg/mL
same,Concentrations effective in inhibiting the growth of many Gram-negative bacteria,[6],< 4 µg/mL

# Reference: patent US8507454B2, “Methods and unit dose formulations for the inhalation administration of aminoglycoside antibiotics” (priority 2001, dated 2013)
